# Measurements from ChEMBL document CHEMBL5634096, “Design, synthesis and bioevaluation of PI3Kα-selective inhibitors as potential colorectal cancer drugs” (Eur J Med Chem, 2023).
# The source made the active and inactive calls. The rule behind the calls is not given here.
# What was measured:
# [1] = molecular target: Cytochrome P450 1A2 (Homo sapiens, UniProt P05177); experiment: Inhibition of CYP1A2 in human liver microsomes using phenacetin as substrate pre-incubated for 30 mins followed by substrate addition and measured after 15 mins in presence of NADPH by LC/MS analysis; type: ADME, Microsome
# [2] = molecular target: Cytochrome P450 3A4 (Homo sapiens, UniProt P08684); experiment: Inhibition of CYP3A4 in human liver microsomes using midazolam as substrate pre-incubated for 30 mins followed by substrate addition and measured after 15 mins in presence of NADPH by LC/MS analysis; type: ADME, Microsome
# [3] = test system: DU-145; experiment: Antiproliferative activity against human DU-145 cells assessed as reduction in cell viability at 10 uM incubated for 24 to 48 hrs by CCK-8 assay; type: functional, cell-based; settings: time lower […], time upper 48.0 hrs
# [4] = test system: HCT-116; experiment: Induction of cell cycle arrest in human HCT-116 cells assessed as decrease in accumulation of cells at G2/M phase at 3 to 12 uM incubated for 48 hrs by PI staining based flow cytometry analysis (reference value: 16.5 %); type: functional; parameters: scale not given: the % may be the effect or the level left; settings: dose 3-12 µM
# Cytochrome P450 1A2, sequence (P05177 whole entry): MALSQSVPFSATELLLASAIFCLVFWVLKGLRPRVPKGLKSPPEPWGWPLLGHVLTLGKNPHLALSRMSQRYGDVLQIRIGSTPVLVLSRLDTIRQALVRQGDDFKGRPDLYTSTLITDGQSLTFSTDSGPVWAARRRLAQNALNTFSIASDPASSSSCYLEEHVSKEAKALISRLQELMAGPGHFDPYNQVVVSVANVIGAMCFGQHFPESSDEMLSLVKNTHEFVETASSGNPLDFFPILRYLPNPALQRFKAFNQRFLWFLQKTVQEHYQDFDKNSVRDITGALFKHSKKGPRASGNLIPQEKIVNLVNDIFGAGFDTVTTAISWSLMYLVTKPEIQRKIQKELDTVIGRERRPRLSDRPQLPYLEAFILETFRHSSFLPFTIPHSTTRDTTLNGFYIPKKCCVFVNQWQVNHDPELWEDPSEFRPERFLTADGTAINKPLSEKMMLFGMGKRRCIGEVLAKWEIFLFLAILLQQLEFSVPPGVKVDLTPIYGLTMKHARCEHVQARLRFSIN
# Cytochrome P450 3A4, sequence (P08684 whole entry): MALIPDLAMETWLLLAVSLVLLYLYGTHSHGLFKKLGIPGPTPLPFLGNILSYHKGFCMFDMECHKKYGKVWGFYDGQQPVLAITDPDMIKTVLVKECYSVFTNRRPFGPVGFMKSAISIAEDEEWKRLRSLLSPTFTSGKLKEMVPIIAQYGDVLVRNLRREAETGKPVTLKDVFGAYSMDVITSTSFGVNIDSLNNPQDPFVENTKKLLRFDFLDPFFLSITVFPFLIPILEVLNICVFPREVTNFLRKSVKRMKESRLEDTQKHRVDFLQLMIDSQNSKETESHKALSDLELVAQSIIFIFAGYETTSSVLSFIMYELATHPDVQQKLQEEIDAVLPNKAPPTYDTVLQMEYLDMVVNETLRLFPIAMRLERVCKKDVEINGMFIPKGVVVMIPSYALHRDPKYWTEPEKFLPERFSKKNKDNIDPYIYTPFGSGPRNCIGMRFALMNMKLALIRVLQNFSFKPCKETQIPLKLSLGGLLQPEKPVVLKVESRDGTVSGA
smiles,measurement,setting,value
Nc1nc2cc(-c3ccc4ncc(N5C[C@@H]6OCCO[C@@H]6C5)nc4c3)ccc2o1,IC50,[1],> 10 µM
same,IC50,[2],> 10 µM
same,Activity,[3],Active
same,Activity,[4],19%
